According to patent US11746100B2 (GLOBAL BLOOD THERAPEUTICS, INC., priority 2020, dated 2023):

target: T1, human ferroportin (Homo sapiens, UniProt Q9NP59); assay: Biological in-vitro ferroportin internalization assay (luciferase reporter); format: cell-based; conditions: average pEC50; stably-transfected CHO cell line expressing human ferroportin tagged to a luciferase reporter; 6 h incubation with test compound
T1 construct: luciferase reporter (read with the Nano-Glo Luciferase Assay System); expressed in transfected cells; host or cells: CHO cells, stably transfected, expression induced with doxycycline
T1 sequence (Q9NP59 1-571): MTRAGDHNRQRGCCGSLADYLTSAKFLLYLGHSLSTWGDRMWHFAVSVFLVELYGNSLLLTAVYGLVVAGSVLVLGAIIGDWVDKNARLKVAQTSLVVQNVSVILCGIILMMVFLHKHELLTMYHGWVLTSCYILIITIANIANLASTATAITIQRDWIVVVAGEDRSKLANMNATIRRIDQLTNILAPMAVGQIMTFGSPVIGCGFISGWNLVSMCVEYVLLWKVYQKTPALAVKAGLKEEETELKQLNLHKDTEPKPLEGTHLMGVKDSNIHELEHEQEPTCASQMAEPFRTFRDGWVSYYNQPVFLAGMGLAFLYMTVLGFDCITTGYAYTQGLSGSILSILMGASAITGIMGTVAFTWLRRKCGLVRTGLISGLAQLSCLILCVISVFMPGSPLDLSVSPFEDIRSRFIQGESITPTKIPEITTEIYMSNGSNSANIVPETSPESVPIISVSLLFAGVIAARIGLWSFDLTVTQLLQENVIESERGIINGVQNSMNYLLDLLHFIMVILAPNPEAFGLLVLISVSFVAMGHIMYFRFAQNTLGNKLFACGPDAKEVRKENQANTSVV
Description: The protocol for this assay is generally as described in WO2018/128828, incorporated herein by reference in its entirety. Functional internalization of ferroportin protein was measured using a stably-transfected CHO cell line expressing the human ferroportin tagged to a luciferase reporter. Cells were plated for 24 h in the presence of ferric ammonium citrate (FAC). Ferroportin protein expression was induced with doxycycline for 24 h. The next day, the compounds were added. Test compounds were dissolved in DMSO. Cells were incubated with the test compounds for 6 h, and subsequently luciferase activity was measured using the Nano-Glo Luciferase Assay System and Glomax (Promega, Madison, Wis.). The average pEC50 was determined for the test compounds.

| pEC50 | Structure (SMILES) |
| --- | --- |
| 7.5 | CN(CC(=O)Nc1cnn(C)c1)c1nc(-c2cc(OCC3CC3)ccn2)nc2c1CCC2 [Compound 215, 2-({2-[4-(cyclopropylmethoxy)pyridin-2-yl]-5H,6H,7H-cyclopenta[d]pyrimidin-4-yl}(methyl)amino)-N-(1-methyl-1H-pyrazol-4-yl)acetamide] |
| 8.3 | CN(CC(=O)NC(C)(C)C)c1nc(-c2cc(OCCN3C[C@@H]4C[C@H]3CO4)ccn2)nc2c1CCC2 [Compound 461, N-tert-butyl-2-{methyl[2-(4-{2-[(1S,4S)-2-oxa-5-azabicyclo[2.2.1]heptan-5-yl]ethoxy}pyridin-2-yl)-5H,6H,7H-cyclopenta[d]pyrimidin-4-yl]amino}acetamide] |
| 7.1 | CN(CC(=O)N1CCCCC1)c1nc(-c2ccccn2)nc2c1CCC2 [Compound 88, 2-{methyl[2-(pyridin-2-yl)-5H,6H,7H-cyclopenta[d]pyrimidin-4-yl]amino}-1-(piperidin-1-yl)ethan-1-one] |
| 7.9 | COc1ccc(NC(=O)CN(C)c2nc(-c3cc(OCC(C)(C)O)ccn3)nc3c2CCC3)cn1 [Compound 210, 2-({2-[4-(2-hydroxy-2-methylpropoxy)pyridin-2-yl]-5H,6H,7H-cyclopenta[d]pyrimidin-4-yl}(methyl)amino)-N-(6-methoxypyridin-3-yl)acetamide] |
| 7.7 | Cc1cc(NC(=O)CN(C)c2nc(-c3cc(OCCO)ccn3)nc3c2CCC3)sn1 [Compound 350, 2-({2-[4-(2-hydroxyethoxy)pyridin-2-yl]-5H,6H,7H-cyclopenta[d]pyrimidin-4-yl}(methyl)amino)-N-(3-methyl-1,2-thiaozl-5-yl)acetamide] |
| 8.1 | COc1ccnc(-c2nc3c(c(N(C)CC(=O)Nc4ccc(OC)nc4)n2)CCC3)c1 [Compound 151, 2-{[2-(4-methoxypyridin-2-yl)-5H,6H,7H-cyclopenta[d]pyrimidin-4-yl](methyl)amino}-N-(6-methoxypyridin-3-yl)acetamide] |
| 7.6 | COc1ccnc(-c2nc3c(c(N(C)CC(=O)Nc4cnc(OC)nc4)n2)CCC3)c1 [Compound 153, 2-{[2-(4-methoxypyridin-2-yl)-5H,6H,7H-cyclopenta[d]pyrimidin-4-yl](methyl)amino}-N-(2-methoxypyrimidin-5-yl)acetamide] |
| 7.6 | CN(CC(=O)N1CCCCC1)c1nc(-c2cc(O[C@@H]3CCOC3)ccn2)nc2c1CCC2 [Compound 342, 2-[methyl(2-{4-[(3R)-oxolan-3-yoxy]pyridin-2-yl}-5H,6H,7H-cyclopenta[d]pyrimidin-4-yl)amino]-1-(piperidin-1-yl)ethan-1-one] |
| 7.9 | CN(CC(=O)Nc1cccc(F)c1)c1nc(-c2cc(OCCN3CCCC3)ccn2)nc2c1CCC2 [Compound 252, N-(3-fluorophenyl)-2-[methyl(2-{4-[2-(pyrrolidin-1-yl)ethoxy]pyridin-2-yl}-5H,6H,7H-cyclopenta[d]pyrimidin-4-yl)amino]acetamide] |
| 6.5 | CN(CC(=O)Nc1ccc(F)nc1)c1nc(-c2cc3cnn(C4CCCCO4)c3cn2)nc2c1CCC2 (centres unmarked) [Compound 264, N-(6-fluoropyridin-3-yl)-2-[methyl({2-[1-(oxan-2-yl)-1H-pyrazolo[3,4-c]pyridin-5-yl]-5H,6H,7H-cyclopenta[d]pyrimidin-4-yl})amino]acetamide] |

Continued, molecule first:

| Structure (SMILES) | pEC50 |
| --- | --- |
| CN(CC(=O)N1CCCCC1)c1nc(-c2cc(OCCO)ccn2)nc2c1C(C)(C)CC2 [Compound 362, 2-({2-[4-(2-hydroxyethoxy)pyridin-2-yl]-5,5-dimethyl-5H,6H,7H-cyclopenta[d]pyrimidin-4-yl}(methyl)amino)-1-(piperidin-1-yl)ethan-1-one] | 8 |
| CN(CC(=O)N1CCC(F)(F)CC1)c1nc(-c2cc(OCCO)ccn2)nc2c1CCC2 [Compound 355, 1-(4,4-difluoropiperidin-1-yl)-2-({2-[4-(2-hydroxyethoxy)pyridin-2-yl]-5H,6H,7H-cyclopenta[d]pyrimidin-4-yl}(methyl)amino)ethan-1-one] | 7.7 |
| COc1cnc(-c2nc3c(c(N(C)CC(=O)NC(C)(C)C)n2)CCC3)cn1 [Compound 12, N-tert-butyl-2-{[2-(5-methoxypyrazin-2-yl)-5H,6H,7H-cyclopenta[d]pyrimidin-4-yl](methyl)amino}acetamide] | 5.8 |
| C[C@H](C(=O)NC(C)(C)C)N(C)c1nc(-c2cc(OCCO)ccn2)nc2c1CCC2 [Compound 311, (2R)-N-tert-butyl-2-({2-[4-(2-hydroxyethoxy)pyridin-2-yl]-5H,6H,7H-cyclopenta[d]pyrimidin-4-yl}(methyl)amino)propanamide] | 8.4 |
| c1ccc(-c2nc3c(c(N4CCCc5ccccc54)n2)CCC3)nc1 [Compound 76, 1-[2-(pyridin-2-yl)-5H,6H,7H-cyclopenta[d]pyrimidin-4-yl]-1,2,3,4-tetrahydroquinoline] | 6 |
| CN(c1nc(-c2ccccn2)nc2c1CCC2)[C@H]1CCN(c2ccncc2)C1=O [Compound 208, (3S)-3-{methyl[2-(pyridin-2-yl)-5H,6H,7H-cyclopenta[d]pyrimidin-4-yl]amino}-1-(pyridin-4-yl)pyrrolidin-2-one] | 5.7 |
| CO[C@@H]1CCN(CCOc2ccnc(-c3nc4c(c(N(C)CC(=O)NC(C)(C)C)n3)CCC4)c2)C1 [Compound 463, N-tert-butyl-2-{[2-(4-{2-[(3R)-3-methoxypyrrolidin-1-yl]ethoxy}pyridin-2-yl)-5H,6H,7H-cyclopenta[d]pyrimidin-4-yl](methyl)amino}acetamide] | 8.1 |
| C[C@H]1OC[C@@H]1Oc1ccnc(-c2nc3c(c(N(C)CC(=O)NC(C)(C)C)n2)CCC3)c1 (racemic) [Compound 333, N-tert-butyl-2-{methyl[2-(4-{[(2R,3S)-2-methyloxetan-3-yl]oxy}pyridin-2-yl)-5H,6H,7H-cyclopenta[d]pyrimidin-4-yl]amino}acetamide] | 7.8 |
| C[C@@H]1OC[C@@H]1Oc1ccnc(-c2nc3c(c(N(C)CC(=O)NC(C)(C)C)n2)CCC3)c1 (racemic) [Compound 332, N-tert-butyl-2-{methyl[2-(4-{[(2S,3S)-2-methyloxetan-3-yl]oxy}pyridin-2-yl)-5H,6H,7H-cyclopenta[d]pyrimidin-4-yl]amino}acetamide] | 7.8 |
| CC1(C)CC[C@@H](Nc2nc(-c3ccccn3)nc3c2CCC3)C(=O)N1 [Compound 55, (3R)-6,6-dimethyl-3-{[2-(pyridin-2-yl)-5H,6H,7H-cyclopenta[d]pyrimidin-4-yl]amino}piperidin-2-one] | 6.3 |
| Cc1ccnc(-c2nc3c(c(N4CCCCCC4)n2)CCC3)c1 [Compound 14, 1-[2-(4-methylpyridin-2-yl)-5H,6H,7H-cyclopenta[d]pyrimidin-4-yl]azepane] | 6.8 |
| C[C@H](C(=O)NC(C)(C)C)N(C)c1nc(-c2cc3cn[nH]c3cn2)nc2c1CCC2 [Compound 183, (2R)—N-tert-butyl-2-[methyl(2-{1H-pyrazolo[3,4-c]pyridin-5-yl}-5H,6H,7H-cyclopenta[d]pyrimidin-4-yl)amino]propanamide] | 8 |
| CC(C)[C@H](O)COc1ccnc(-c2nc3c(c(N(C)CC(=O)NC(C)(C)C)n2)CCC3)c1 [Compound 386, N-tert-butyl-2-[(2-{4-[(2S)-2-hydroxy-3-methylbutoxy]pyridin-2-yl}-5H,6H,7H-cyclopenta[d]pyrimidin-4-yl)(methyl)amino]acetamide] | 8.4 |
